Results published in patent publication US11214536B2, “Polymorphs and uses thereof” (Inspirna, Inc., priority 2017, dated 2022).

Assay: Dynamic Vapor Sorption (DVS), hygroscopicity, with XRPD of the post-DVS solid
Type: physicochemical
Settings: for mass uptake at 90% RH by DVS analysis: 25° C., DVS sorption/desorption cycles; for hygroscopic nature by DVS analysis: assessed from mass uptake at 90% RH; for solid form of the post-DVS sample (XRPD): XRPD analysis on solid retained after DVS
Experimental: Approximately, 10-20 mg of sample was placed into a mesh vapor sorption balance pan and loaded into a DVS Advantage dynamic vapor sorption balance by Surface Measurement Systems. The sample was subjected to a ramping profile from 40-90% relative humidity (RH) at 10% increments, maintaining the sample at each step until a stable weight had been achieved (dm/dt 0.004%, minimum step length 30 minutes, maximum step length 500 minutes) at 25° C. After completion of the sorption cycle, the sample was dried using the same procedure to 0% RH and then a second sorption cycle back to 40% RH. Two cycles were performed. The weight change during the sorption/desorption cycles were plotted, allowing for the hygroscopic nature of the sample to be determined. XRPD analysis was then carried out on any solid retained.

| Structure (SMILES) | mass uptake at 90% RH by DVS analysis | hygroscopic nature by DVS analysis | solid form of the post-DVS sample (XRPD) | mass uptake at 90% RH by DVS analysis (listed as amorphous compound) |
| --- | --- | --- | --- | --- |
| CC(CCOc1cccc(CC(=O)O)c1)N(Cc1cccc(C(F)(F)F)c1Cl)CC(c1ccccc1)c1ccccc1 (stereo not shown) [Form 4] | about 1.16% | slightly hygroscopic | no change in the solid form |  |
| CC(CCOc1cccc(CC(=O)O)c1)N(Cc1cccc(C(F)(F)F)c1Cl)CC(c1ccccc1)c1ccccc1 (stereo not shown) [Form 5] | about 2.7% | slightly hygroscopic | partially amorphous Form 5 material |  |
| CC(CCOc1cccc(CC(=O)O)c1)N(Cc1cccc(C(F)(F)F)c1Cl)CC(c1ccccc1)c1ccccc1 (stereo not shown) [Form 6] | about 2.3% | slightly hygroscopic | no significant change in the solid form |  |
| CC(CCOc1cccc(CC(=O)O)c1)N(Cc1cccc(C(F)(F)F)c1Cl)CC(c1ccccc1)c1ccccc1 (stereo not shown) [amorphous material] | about 6.17% | highly hygroscopic | remained amorphous | about 6.17% |
